Measured values published in patent US20230183179A1, “NOVEL CELL METABOLISM MODULATING COMPOUNDS AND USES THEREOF” (CRESCENTA BIOSCIENCES, priority 2020, published 2023).

Legend:
[1] = test system: differentiated 3T3-L1 mouse adipocyte cells; assay: Adipocyte glucose consumption in differentiated 3T3-L1 cells (colorimetric glucose assay of the medium); format: cell-based; details: 3T3-L1, 24 h, compound 10 μM, loss of glucose from culture medium, mean fold change (compound/DMSO)
How it was run: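 Differentiated 3T3-L1 mouse adipocytes (rosiglitazone/dexamethasone/IBMX/insulin induction, day 11) treated 24 h with compounds at 10 μM, 0.1% DMSO final. Medium glucose measured colorimetrically; consumption taken as glucose loss from medium versus cell-free control, expressed as mean fold change compound/DMSO ±SD.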

[2] = biological target: T1, His6 tagged human recombinant FABP4 (Homo sapiens, UniProt P15090); assay: FABP4 TR-FRET assay: displacement of fluorescent fatty acid BODIPY FL C12; details: inhibition of BODIPY FL C12 binding to His6-FABP4; 1.2 μL of 1.085 mM compound in DMSO per well; triplicates, mean percent inhibition
T1 construct: purchased Cayman Chemicals 10009549
T1 sequence (P15090 whole entry): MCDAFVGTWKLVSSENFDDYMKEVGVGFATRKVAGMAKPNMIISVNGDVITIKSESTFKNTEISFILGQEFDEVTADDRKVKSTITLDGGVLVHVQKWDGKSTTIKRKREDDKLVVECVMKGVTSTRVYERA
How it was run: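 TR-FRET displacement of BODIPY FL C12 from His6-FABP4 bound by Tb-anti-His6 antibody, in Tris pH 7.4 buffer with γ-globulins, NP-40 and DTT; compound stock 1.085 mM in DMSO. Read after 10 min at room temperature as 520/615 nm ratio; mean % inhibition versus DMSO from triplicates.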

| Structure (SMILES) | fold induction at 10 µM [1] | inhibition at 1085 µM (stock) [2] |
| --- | --- | --- |
| CCCCCCc1ccc2nc(OCC(=O)O)cc(-c3cccc(C#N)c3)c2c1 [2-{[4-(3-cyanophenyl)-6-hexylquinolin-2-yl]oxy}acetic acid] | 1.02 | 39.4% |
| CCCCCCCCc1ccc2nc(N(CC(=O)O)CC(C)C)cc(-c3ccc(F)cc3)c2c1 [2-{[4-(4-fluorophenyl)-6-octylquinolin-2-yl](2-methylpropyl)amino}acetic acid] | 1.28 | 68% |
| CCc1ccc2nc(OCC(=O)O)cc(-c3ccccc3)c2c1 [2-[(6-ethyl-4-phenylquinolin-2-yl)oxy]acetic acid] | 0.97 | 31.9% |
| CN(CC(=O)O)c1cc(-c2ccccc2)c2cc(CCc3cccc(Cl)c3)ccc2n1 [2-({6-[2-(3-chlorophenyl)ethyl]-4-phenylquinolin-2-yl}(methyl)amino)acetic acid] | 1.47 | 57.1% |
| CCCCCCc1ccc2nc(N3CC(C(=O)O)CC3=O)cc(-c3ccccc3)c2c1 (stereo not drawn) [1-(6-hexyl-4-phenylquinolin-2-yl)-5-oxopyrrolidine-3-carboxylic acid] | 1.11 | 6.12% |
| CCCCc1ccc2nc(N3CCOC(C(=O)O)C3)cc(-c3ccccc3)c2c1 (stereo not drawn) [4-(6-butyl-4-phenylquinolin-2-yl)morpholine-2-carboxylic acid] | 1.07 | 21.1% |
| CCCCCCc1ccc2nc(OC(C)C(=O)O)cc(-c3ccncc3)c2c1 (stereo not drawn) [2-{[6-hexyl-4-(pyridin-4-yl)quinolin-2-yl]oxy}propanoic acid] | 1.3 | 21% |
| CN(CC(=O)O)c1cc(-c2ccccc2)c2cc(CCN3CCCCC3)ccc2n1 [2-[methyl({4-phenyl-6-[2-(piperidin-1-yl)ethyl]quinolin-2-yl})amino]acetic acid] | 0.96 | < 0% |
| CCCCCCc1ccc2nc(N3CCOC(C(=O)O)C3)cc(-c3ccccc3)c2c1 (stereo not drawn) [4-(6-hexyl-4-phenylquinolin-2-yl)morpholine-2-carboxylic acid] | 1.22 | 36.1% |
| CCCCCCc1ccc2nc(N3CCCCC3)cc(-c3ccccc3)c2c1 [6-hexyl-4-phenyl-2-(piperidin-1-yl)quinoline] | 1.18 | 46.3% |
| CCCCCCc1ccc2nc(N3CCC(C)(C(=O)O)C3)cc(-c3ccccc3)c2c1 (stereo not drawn) [1-(6-hexyl-4-phenylquinolin-2-yl)-3-methylpyrrolidine-3-carboxylic acid] | 1.36 | 36.4% |
| CN(CC(=O)O)c1cc(-c2ccccc2)c2cc(CCC3CNc4ccccc4N3)ccc2n1 (stereo not drawn) [2-[methyl({4-phenyl-6-[2-(1,2,3,4-tetrahydroquinoxalin-2-yl)ethyl]quinolin-2-yl})amino]acetic acid] | 1.26 | 14.9% |
| CCCCCCc1ccc2nc(N(C)CC(=O)O)cc(N3CCOCC3)c2c1 [2-{[6-hexyl-4-(morpholin-4-yl)quinolin-2-yl](methyl)amino}acetic acid] | 1.31 | 26.5% |
| CCCCc1ccc2nc(N(C)C(C(=O)O)C(C)C)cc(-c3cccc(C#N)c3)c2c1 (stereo not drawn) [N-(6-butyl-4-(3-cyanophenyl)quinolin-2-yl)-N-methylvaline?] | 1.18 | 21% |
| CCCc1ccc2nc(N(C)CC(=O)O)cc(-c3ccccc3)c2c1 [2-[methyl(4-phenyl-6-propylquinolin-2-yl)amino]acetic acid] | 1.36 | 104% |
| CCCCc1ccc2nc(N(C)CC(C)C(=O)O)cc(-c3cccc(C#N)c3)c2c1 (stereo not drawn) [3-{[6-butyl-4-(3-cyanophenyl)quinolin-2-yl](methyl)amino}-2-methylpropanoic acid] | 1.21 | 38.7% |
| CCCCCCc1ccc2nc(N(C)CC(=O)O)cc(-c3ccncc3)c2c1 [2-{[6-hexyl-4-(pyridin-4-yl)quinolin-2-yl](methyl)amino}acetic acid] | 1.17 | 51.4% |
| CN(CC(=O)O)c1cc(-c2cccc(C(N)=O)c2)c2cc(Br)ccc2n1 [2-{[6-bromo-4-(3-carbamoylphenyl)quinolin-2-yl](methyl)amino}acetic acid] | 1.1 | 93.8% |
| CCCCCc1ccc2nc(N(C)CC(=O)O)cc(-c3ccccc3)c2c1 [2-[methyl(6-pentyl-4-phenylquinolin-2-yl)amino]acetic acid] | 1.32 | 90.5% |
| CN(CCc1ccc2nc(N(C)CC(=O)O)cc(-c3ccccc3)c2c1)c1ccccc1 [2-[methyl(6-{2-[methyl(phenyl)amino]ethyl}-4-phenylquinolin-2-yl)amino]acetic acid] | 1.17 | 55.9% |
| CN(CC(=O)O)c1cc(-c2ccccc2)c2cc(CCN3CCOCC3)ccc2n1 [2-[methyl({6-[2-(morpholin-4-yl)ethyl]-4-phenylquinolin-2-yl})amino]acetic acid] | 1.13 | 6.78% |
| CCCCc1ccc2nc(N3CCCC(C(=O)O)C3)cc(-c3ccccc3)c2c1 (stereo not drawn) [1-(6-butyl-4-phenylquinolin-2-yl)piperidine-3-carboxylic acid] | 1.25 | 98.1% |
| CCCc1cccc(-c2ccc3nc(N(C)CC(=O)O)cc(-c4ccccc4)c3c2)c1 [2-{methyl[4-phenyl-6-(3-propylphenyl)quinolin-2-yl]amino}acetic acid] | 1.07 | 61.2% |
| CCCCCCc1ccc2nc(N(C)CC(C)C(=O)O)cc(-c3ccccc3)c2c1 (stereo not drawn) [3-[(6-hexyl-4-phenylquinolin-2-yl)(methyl)amino]-2-methylpropanoic acid] | 1.31 | 89.7% |
| COc1ccccc1CCc1ccc2nc(N(C)CC(=O)O)cc(-c3ccccc3)c2c1 [2-({6-[2-(2-methoxyphenyl)ethyl]-4-phenylquinolin-2-yl}(methyl)amino)acetic acid] | 1.11 | 65.1% |
| COc1ccc2nc(N(C)CC(=O)O)cc(-c3ccccc3)c2c1 [2-[(6-methoxy-4-phenylquinolin-2-yl)(methyl)amino]acetic acid] | 1.12 | 101% |
| CCCCCCc1ccc2c(-c3ccccc3)cc(N(C)CC(=O)O)nc2c1 [2-[(7-hexyl-4-phenylquinolin-2-yl)(methyl)amino]acetic acid] | 1.26 | 25.3% |
| COc1cccc(CCc2ccc3nc(N(C)CC(=O)O)cc(-c4ccccc4)c3c2)c1 [2-({6-[2-(3-methoxyphenyl)ethyl]-4-phenylquinolin-2-yl}(methyl)amino)acetic acid] | 1.31 | 93.2% |
| COc1ccc(CCc2ccc3nc(N(C)CC(=O)O)cc(-c4ccccc4)c3c2)cc1 [2-({6-[2-(4-methoxyphenyl)ethyl]-4-phenylquinolin-2-yl}(methyl)amino)acetic acid] | 1.26 | 15% |
| CCCCCCc1ccc2nc(N(C)CC(C)C(=O)O)cc(-c3cccc(C#N)c3)c2c1 (stereo not drawn) [3-{[4-(3-cyanophenyl)-6-hexylquinolin-2-yl](methyl)amino}-2-methylpropanoic acid] | 1.3 | 56.5% |
